Experimental findings from article PMC12797721 (Cell Communication and Signaling : CCS, 2025) are described below.

Experiment [1] concerns the target C18ORF32 (Homo sapiens, UniProt Q8TCD1, F19A/Y16A/Y23A/Y25A). The experiment in a line: isothermal titration calorimetry. The experiment is classed as binding. In general terms: In ITC the heat of successive injections is recorded.
In experiment [2] the target is C18ORF32 (Homo sapiens, UniProt Q8TCD1). The experiment in a line: isothermal titration calorimetry. The experiment is classed as binding.
Sequence of C18ORF32 (Homo sapiens, UniProt Q8TCD1) (Q8TCD1 whole entry): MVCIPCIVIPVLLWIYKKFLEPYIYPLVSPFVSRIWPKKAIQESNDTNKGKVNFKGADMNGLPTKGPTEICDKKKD

Molecules are shown by their SMILES.

For orientation: Kd means the free concentration of one partner at which half of the binding sites on the other are occupied at equilibrium, for simple one-to-one binding. A lower Kd goes with higher affinity.

Sequence of C18ORF32 (Homo sapiens, UniProt Q8TCD1, F19A/Y16A/Y23A/Y25A) (Q8TCD1 whole entry Y16A/F19A/Y23A/Y25A): as the sequence (Q8TCD1 whole entry) above, with Y16A, F19A, Y23A, Y25A counted along it

For `C[N+](C)(C)CCO` [choline], the Kd turned out to be 557 µM on C18ORF32 [1] and 0.0678 µM at C18ORF32 [2].
